{
  "source": "paper PMC12578388",
  "about": "“Allosteric modulation of the solute carrier transporter SLC39A8 potentiates manganese and cadmium uptake” (The Journal of Clinical Investigation, 2025)",
  "format_in_all_cases": "cell-based",
  "key": {"mouse SLC39A8": {"target": "T1, mouse SLC39A8 (Mus musculus, UniProt Q91W10)", "T1 sequence (Q91W10 20-462)": "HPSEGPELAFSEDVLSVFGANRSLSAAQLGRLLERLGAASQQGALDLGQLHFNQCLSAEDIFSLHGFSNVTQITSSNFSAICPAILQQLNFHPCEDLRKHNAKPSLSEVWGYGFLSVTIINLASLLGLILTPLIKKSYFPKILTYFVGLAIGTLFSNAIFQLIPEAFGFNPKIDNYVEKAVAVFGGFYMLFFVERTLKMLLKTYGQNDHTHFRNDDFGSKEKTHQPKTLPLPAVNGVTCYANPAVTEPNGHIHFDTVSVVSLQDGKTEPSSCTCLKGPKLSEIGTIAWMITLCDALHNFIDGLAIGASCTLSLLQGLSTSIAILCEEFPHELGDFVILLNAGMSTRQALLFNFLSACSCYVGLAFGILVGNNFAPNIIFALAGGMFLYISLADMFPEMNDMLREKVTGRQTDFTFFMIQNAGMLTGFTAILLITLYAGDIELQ", "assay": "Cd uptake in cells expressing mouse SLC39A8"}, "pig SLC39A8": {"target": "T2, pig SLC39A8 (Sus scrofa, UniProt A0A480EKF5, F327C)", "T2 sequence (A0A480EKF5 20-461 F327C)": "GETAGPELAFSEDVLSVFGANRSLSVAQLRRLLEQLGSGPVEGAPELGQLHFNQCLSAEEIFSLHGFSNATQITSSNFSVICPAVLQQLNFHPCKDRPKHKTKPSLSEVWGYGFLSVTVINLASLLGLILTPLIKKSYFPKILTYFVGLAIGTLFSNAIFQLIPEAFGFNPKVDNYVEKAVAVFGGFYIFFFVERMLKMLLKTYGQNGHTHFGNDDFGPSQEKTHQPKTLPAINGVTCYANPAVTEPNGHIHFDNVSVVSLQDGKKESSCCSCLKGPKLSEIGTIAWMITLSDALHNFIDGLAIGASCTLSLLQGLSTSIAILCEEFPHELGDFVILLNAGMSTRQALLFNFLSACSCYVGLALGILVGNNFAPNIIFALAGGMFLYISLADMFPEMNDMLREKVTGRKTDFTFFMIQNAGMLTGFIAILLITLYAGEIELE", "assay": "Cd uptake in cells expressing mutant pig SLC39A8 (gain of EFV sensitivity)"}, "rat SLC39A8": {"target": "T3, rat SLC39A8 (Rattus norvegicus, UniProt Q5FVQ0, Y328C)", "T3 sequence (Q5FVQ0 20-462 Y328C)": "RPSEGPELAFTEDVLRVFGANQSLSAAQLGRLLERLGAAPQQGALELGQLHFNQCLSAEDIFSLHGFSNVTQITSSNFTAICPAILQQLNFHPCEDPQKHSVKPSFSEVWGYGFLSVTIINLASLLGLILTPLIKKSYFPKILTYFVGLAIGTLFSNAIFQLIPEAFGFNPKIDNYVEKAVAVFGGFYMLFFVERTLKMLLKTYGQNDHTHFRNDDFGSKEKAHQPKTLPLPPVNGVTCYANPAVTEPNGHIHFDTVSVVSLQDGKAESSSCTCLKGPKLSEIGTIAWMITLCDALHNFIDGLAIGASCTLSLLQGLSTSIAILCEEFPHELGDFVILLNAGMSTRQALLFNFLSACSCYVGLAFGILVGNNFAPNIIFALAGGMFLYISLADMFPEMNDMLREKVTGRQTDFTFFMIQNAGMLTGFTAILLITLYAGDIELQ", "assay": "Cd uptake in cells expressing mutant rat SLC39A8 (gain of EFV sensitivity)"}},
  "data": [
    {"smiles": "O=C1Nc2ccc(Cl)cc2[C@@](C#CC2CC2)(C(F)(F)F)O1", "note": "[compound 1, efavirenz]", "values": [
      {"measurement": "Cd uptake in cells expressing mouse SLC39A8", "setting": "mouse SLC39A8", "value": "EFV was able to enhance Cd uptake in cells expressing mouse SLC39A8 but not chicken, frog, or zebrafish"},
      {"measurement": "Cd uptake in cells expressing mutant pig SLC39A8 (gain of EFV sensitivity)", "setting": "pig SLC39A8", "value": "EFV sensitivity could be created by replacing these residues with cysteine in pig F327C and rat Y328C, respectively"},
      {"measurement": "Cd uptake in cells expressing mutant rat SLC39A8 (gain of EFV sensitivity)", "setting": "rat SLC39A8", "value": "EFV sensitivity could be created by replacing these residues with cysteine in pig F327C and rat Y328C, respectively"}
    ]}
  ]
}
